Data from patent US9288983B2, “Compositions of dibromomalonamide and their use as biocides” (Dow Global Technologies LLC, priority 2009, dated 2016).
Read-outs that look alike come from different tables or passages of the source.

Tests used:
[1] = system: mixture of Pseudomonas aeruginosa, Klebsiella pneumoniae, Staphylococcus aureus, and Bacillus subtilis; assay: Growth inhibition assay (microtiter plate, OD580); format: cell-based; conditions: for I90 value: 24 hr; for % Inhibition of growth by single active / inhibition at 0.39 µg/mL / inhibition at 0.78 µg/mL / inhibition at 1.56 µg/mL / inhibition at 3.13 µg/mL / inhibition at 6.25 µg/mL / inhibition at 12.5 µg/mL / inhibition at 25 µg/mL: 24 h; for inhibition at 0.39 µg/mL / inhibition at 0.78 µg/mL / inhibition at 1.56 µg/mL / inhibition at 3.13 µg/mL / inhibition at 6.25 µg/mL / inhibition at 12.5 µg/mL / inhibition at 25 µg/mL: read-out: % Inhibition of growth by single active
Text: Growth Inhibition Assay. […] Regardless of the mechanism of action, the impact of a biocide (or combination of biocides) can be measured over time on the basis of an increase in the size of the community.
The assay measures the efficacy of one or more biocides at preventing growth of a consortium of bacteria in a dilute mineral salts medium. The medium contains (in mg/l) the following components: FeCl3.6H2O (1); CaCl2.2H2O (10); MgSO4.7H2O (22.5); (NH4)2SO4 (40); KH2PO4 (10); K2HPO4 (25.5); Yeast Extract (10); and glucose (100). After all components are added to deionized water, the pH of the medium is adjusted to 7.5. Following filter sterilization, aliquots are dispensed in 100 ul quantities to sterile microtiter plate wells. Dilutions of DBMAL and/or “Biocide B” are then added to the microtiter plate. After preparing the combinations of actives as illustrated below, each well is inoculated with 100 μl of a cell suspension containing ca. […] cells per milliliter of a mixture of Pseudomonas aeruginosa, Klebsiella pneumoniae, Staphylococcus aureus, and Bacillus subtilis. The final total volume of medium in each well is 300 μl. Once prepared as described herein, the concentration of each active ranges from 25 ppm to 0.19 ppm as illustrated in Table 1. The resulting matrix allows testing of eight concentrations of each active and 64 combinations of actives in the ratios (of actives).
Controls (not shown) contain the medium with no biocide added. After preparing the combinations of actives as illustrated above, each well is inoculated with 100 μl of a cell suspension containing ca. […] cells per milliliter of a mixture of Pseudomonas aeruginosa, Klebsiella pneumoniae, Staphylococcus aureus, and Bacillus subtilis. The final total volume of medium in each well is 300 μl.
Immediately after the microtiter plates are prepared, the optical density (OD) readings for each well is measured at 580 nm and the plates are then incubated at 37° C. for 24 hr. After the incubation period, the plates are gently agitated before OD580 values are collected. The OD580 values at T0 are subtracted from T24 values to determine the total amount of growth (or lack thereof) that occurs. These values are used to calculate the percent inhibition of growth caused by the presence of each biocide and each of the 64 combinations.
where • CDBMAL: Concentration of DBMAL required to inhibit ˜90% of bacterial growth when used alone • CB: Concentration of biocide (B) required to inhibit ˜90% of bacterial growth when used alone. • MDBMAL: Concentration of DBMAL required to inhibit ˜90% of bacterial growth when used in combination with biocide (B). • MB: Concentration of biocide (B) required to inhibit ˜90% of bacterial growth when used in combination with DBMAL
(§1) The SI values are interpreted as follows: • SI<1: Synergistic combination • SI=1: Additive combination • SI>1: Antagonistic combination
(§2) In the Examples below, the amounts of biocides in the solution are measured in mg per liter of solution (mg/l). Since solution densities are approximately 1.0, the mg/l measurement corresponds to weight ppm. Both units may therefore be used interchangeably in the Examples.

[2] = system: mixture of Pseudomonas aeruginosa ATCC 10045 and Staphylococcus aureus ATCC 6538; assay: Kill assay (minimum biocide concentration, MBC); format: cell-based; conditions: single active, 37° C., 2 hours
Experimental: The procedure is as follows.
as §1, §2

With `O=[N+]([O-])C(Br)=Cc1ccccc1` [BNS, bromonitrostyrene] the I90 value ([1]; Example 2, single active) was 6.25 mg/L, the “% Inhibition of growth by single active” value ([1]; Table 5, 0.78 mg/l alone) was 19% and the “% Inhibition of growth by single active” value ([1]; Table 5, 1.56 mg/l alone) was 42%. The “% Inhibition of growth by single active” value ([1]; Table 5, 3.13 mg/l alone) was 75%.
For `N#CSCSC#N` [MBT, methylene bis(thiocyanate)], the I90 value ([1]; Example 3, single active) was 0.78 mg/L and the “% Inhibition of growth by single active” value ([1]; Table 7, 0.39 mg/l alone) was 24%.
`N#CCCC(Br)(C#N)CBr` (stereo not drawn) [DBDCB, 1,2-Dibromo-2,4-dicyanobutane] showed an inhibition at 0.39 µg/mL ([1]; Table 9, 0.39 mg/l alone) of 0%, an inhibition at 0.78 µg/mL ([1]; Table 9, 0.78 mg/l alone) of 0% and an inhibition at 1.56 µg/mL ([1]; Table 9, 1.56 mg/l alone) of 17%. It also gave an inhibition at 3.13 µg/mL ([1]; Table 9, 3.13 mg/l alone) of 43%, an inhibition at 6.25 µg/mL ([1]; Table 9, 6.25 mg/l alone) of 100% and an inhibition at 12.5 µg/mL ([1]; Table 9, 12.5 mg/l alone) of 99%. It also gave an inhibition at 25 µg/mL ([1]; Table 9, 25.0 mg/l alone) of 97% and an I90 value ([1]; Example 4, single active) of 6.25 mg/L.
In the case of `NC(=O)C(Br)(Br)C(N)=O` [DBMAL, 2,2-dibromomalonamide], the “MBC (minimum biocide concentration needed to completely kill the bacterial cells), biocide alone” value [2] is reported as 66.7 µg/mL, the inhibition at 0.39 µg/mL ([1]; Table 3, 0.39 mg/l alone) is reported as 8% and the inhibition at 0.78 µg/mL ([1]; Table 3, 0.78 mg/l alone) is reported as 12%. The inhibition at 1.56 µg/mL ([1]; Table 3, 1.56 mg/l alone) was 13%, the inhibition at 3.13 µg/mL ([1]; Table 3, 3.13 mg/l alone) was 17% and the inhibition at 12.5 µg/mL ([1]; Table 3, 12.5 mg/l alone) was 97%. The inhibition at 0.39 µg/mL ([1]; Table 5, 0.39 mg/l alone) was 1%, the inhibition at 3.13 µg/mL ([1]; Table 5, 3.13 mg/l alone) was 34% and the inhibition at 6.25 µg/mL ([1]; Table 5, 6.25 mg/l alone) was 65%. For the same molecule, the inhibition at 25 µg/mL ([1]; Table 5, 25.0 mg/l alone) was 98%, the inhibition at 0.39 µg/mL ([1]; Table 7, 0.39 mg/l alone) was 23% and the inhibition at 0.78 µg/mL ([1]; Table 7, 0.78 mg/l alone) was 58%. It also gave an inhibition at 1.56 µg/mL ([1]; Table 7, 1.56 mg/l alone) of 52%, an inhibition at 3.13 µg/mL ([1]; Table 7, 3.13 mg/l alone) of 61% and an inhibition at 6.25 µg/mL ([1]; Table 7, 6.25 mg/l alone) of 41%. For the same molecule, the inhibition at 25 µg/mL ([1]; Table 7, 25.0 mg/l alone) was 98%, the inhibition at 0.78 µg/mL ([1]; Table 9, 0.78 mg/l alone) was 11% and the inhibition at 1.56 µg/mL ([1]; Table 9, 1.56 mg/l alone) was 14%. For the same molecule, the inhibition at 3.13 µg/mL ([1]; Table 9, 3.13 mg/l alone) was 20%, the inhibition at 6.25 µg/mL ([1]; Table 9, 6.25 mg/l alone) was 100% and the I90 value ([1]; Example 2, single active) was 12.5 mg/L. The I90 value ([1]; Example 3, single active) was 12.5 mg/L and the I90 value ([1]; Example 4, single active) was 6.25 mg/L.
With `O=[N+]([O-])C(Br)(CO)CO` [Bronopol, 2-bromo-2-nitropropane-1,3-diol] the “MBC (minimum biocide concentration needed to completely kill the bacterial cells), biocide alone” value [2] was greater than 150 µg/mL, the inhibition at 0.39 µg/mL ([1]; Table 3, 0.39 mg/l alone) was 0% and the inhibition at 0.78 µg/mL ([1]; Table 3, 0.78 mg/l alone) was 0%. For the same molecule, the inhibition at 1.56 µg/mL ([1]; Table 3, 1.56 mg/l alone) was 0%, the inhibition at 3.13 µg/mL ([1]; Table 3, 3.13 mg/l alone) was 67% and the inhibition at 6.25 µg/mL ([1]; Table 3, 6.25 mg/l alone) was 96%. For the same molecule, the inhibition at 12.5 µg/mL ([1]; Table 3, 12.5 mg/l alone) was 99% and the inhibition at 25 µg/mL ([1]; Table 3, 25.0 mg/l alone) was 97%.
